We go through four compounds from ChEMBL document CHEMBL1153601, “Rapid identification of improved protein ligands using peptoid microarrays” (Bioorg Med Chem Lett, 2009).

SMILES strings stand for the structures. Active and inactive are the calls of the source. No cut-off for these calls is given here. Where a SMILES comes first, the peptide text is derived from it. [ ]: non-standard residue; d: D form. Gly(N-piperonyl) = O=C(O)CNCc1ccc2c(c1)OCO2; Gly(N-propargyl) = C#CCNCC(=O)O; NFurfurylGly = O=C(O)CNCc1ccco1; NAllylGly = C=CCNCC(=O)O; Nleu = CC(C)CNCC(=O)O; Nlys = NCCCCNCC(=O)O

Assay [1] concerns the target T1, CREB-binding protein (Homo sapiens, UniProt Q92793). The assay is described as follows: Binding affinity to histidine tagged KIX domain of CREB-binding protein by fluorescence polarization assay. On the technique in general: Polarisation of emitted light reports the rotation of a fluorescent probe.
Target sequence in this assay (Q92793 whole entry, the tested form may be a part): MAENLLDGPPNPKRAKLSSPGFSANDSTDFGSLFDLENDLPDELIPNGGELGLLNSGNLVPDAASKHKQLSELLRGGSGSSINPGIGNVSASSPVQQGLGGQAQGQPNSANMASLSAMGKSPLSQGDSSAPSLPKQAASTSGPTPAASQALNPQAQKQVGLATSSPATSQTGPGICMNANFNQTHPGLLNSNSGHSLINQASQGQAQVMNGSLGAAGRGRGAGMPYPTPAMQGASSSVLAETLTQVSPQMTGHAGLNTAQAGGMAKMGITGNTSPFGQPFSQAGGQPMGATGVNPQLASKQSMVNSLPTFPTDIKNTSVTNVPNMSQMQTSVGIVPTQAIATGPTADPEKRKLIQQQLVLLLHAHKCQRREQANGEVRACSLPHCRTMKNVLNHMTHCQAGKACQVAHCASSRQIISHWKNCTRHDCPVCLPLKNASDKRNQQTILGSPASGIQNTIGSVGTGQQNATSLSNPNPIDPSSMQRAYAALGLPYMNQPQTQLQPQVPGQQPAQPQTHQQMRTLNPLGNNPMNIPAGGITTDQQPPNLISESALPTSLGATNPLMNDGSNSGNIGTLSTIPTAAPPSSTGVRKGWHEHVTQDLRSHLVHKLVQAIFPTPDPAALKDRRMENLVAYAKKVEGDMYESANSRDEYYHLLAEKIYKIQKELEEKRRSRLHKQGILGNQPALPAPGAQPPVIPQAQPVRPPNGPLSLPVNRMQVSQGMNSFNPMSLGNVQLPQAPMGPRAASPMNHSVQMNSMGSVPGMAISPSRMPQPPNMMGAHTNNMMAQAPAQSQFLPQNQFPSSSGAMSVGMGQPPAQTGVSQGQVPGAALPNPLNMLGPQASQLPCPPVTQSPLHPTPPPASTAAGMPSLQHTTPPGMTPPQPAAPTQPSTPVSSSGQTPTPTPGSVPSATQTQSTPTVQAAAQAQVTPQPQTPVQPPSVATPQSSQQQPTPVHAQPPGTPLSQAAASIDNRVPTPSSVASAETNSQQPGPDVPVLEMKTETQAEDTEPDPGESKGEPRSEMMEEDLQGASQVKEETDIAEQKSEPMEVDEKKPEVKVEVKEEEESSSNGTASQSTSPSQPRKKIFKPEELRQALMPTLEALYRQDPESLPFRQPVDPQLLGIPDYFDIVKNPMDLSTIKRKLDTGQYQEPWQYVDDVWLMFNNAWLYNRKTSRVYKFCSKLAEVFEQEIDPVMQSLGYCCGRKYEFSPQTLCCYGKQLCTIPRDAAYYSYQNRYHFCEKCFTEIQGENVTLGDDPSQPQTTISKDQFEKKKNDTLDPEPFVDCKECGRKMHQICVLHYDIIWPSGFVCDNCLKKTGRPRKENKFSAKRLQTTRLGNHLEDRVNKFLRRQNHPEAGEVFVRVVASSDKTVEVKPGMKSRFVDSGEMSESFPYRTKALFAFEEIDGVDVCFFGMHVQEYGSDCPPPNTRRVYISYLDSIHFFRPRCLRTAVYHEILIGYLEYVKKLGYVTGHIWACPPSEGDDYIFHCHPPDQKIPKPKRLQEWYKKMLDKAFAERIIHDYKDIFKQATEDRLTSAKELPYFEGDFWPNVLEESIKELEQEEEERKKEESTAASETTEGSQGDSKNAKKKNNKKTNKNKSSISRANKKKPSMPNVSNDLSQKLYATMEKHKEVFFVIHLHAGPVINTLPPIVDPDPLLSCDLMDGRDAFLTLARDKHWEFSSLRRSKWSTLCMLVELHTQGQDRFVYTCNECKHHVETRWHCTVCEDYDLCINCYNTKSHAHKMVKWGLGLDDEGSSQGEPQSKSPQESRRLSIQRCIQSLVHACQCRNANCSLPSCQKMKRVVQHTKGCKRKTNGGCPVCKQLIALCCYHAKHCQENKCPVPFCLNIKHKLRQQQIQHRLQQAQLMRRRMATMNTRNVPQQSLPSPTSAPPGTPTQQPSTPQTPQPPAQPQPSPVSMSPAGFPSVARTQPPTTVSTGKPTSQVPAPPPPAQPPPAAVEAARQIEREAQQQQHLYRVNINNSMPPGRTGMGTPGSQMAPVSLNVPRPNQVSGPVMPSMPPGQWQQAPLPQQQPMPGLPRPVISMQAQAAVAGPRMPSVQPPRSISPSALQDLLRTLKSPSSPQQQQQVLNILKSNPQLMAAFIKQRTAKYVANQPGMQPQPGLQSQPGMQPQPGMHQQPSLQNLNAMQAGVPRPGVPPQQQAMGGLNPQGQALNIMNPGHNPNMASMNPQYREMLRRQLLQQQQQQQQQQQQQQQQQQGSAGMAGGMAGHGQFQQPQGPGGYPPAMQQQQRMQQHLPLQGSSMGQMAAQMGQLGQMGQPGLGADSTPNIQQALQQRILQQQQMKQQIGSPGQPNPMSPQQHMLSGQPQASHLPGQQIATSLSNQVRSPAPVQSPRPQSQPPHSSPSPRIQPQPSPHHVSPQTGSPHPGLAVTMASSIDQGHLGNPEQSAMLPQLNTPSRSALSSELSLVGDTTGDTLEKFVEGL
Assay [2] has as its target T1, CREB-binding protein. The assay can be described thus: Binding affinity to histidine tagged KIX domain of CREB-binding protein expressed in Escherichia coli by affinity purification assay.
Target sequence in this assay (Q92793 2-2442 limits assumed): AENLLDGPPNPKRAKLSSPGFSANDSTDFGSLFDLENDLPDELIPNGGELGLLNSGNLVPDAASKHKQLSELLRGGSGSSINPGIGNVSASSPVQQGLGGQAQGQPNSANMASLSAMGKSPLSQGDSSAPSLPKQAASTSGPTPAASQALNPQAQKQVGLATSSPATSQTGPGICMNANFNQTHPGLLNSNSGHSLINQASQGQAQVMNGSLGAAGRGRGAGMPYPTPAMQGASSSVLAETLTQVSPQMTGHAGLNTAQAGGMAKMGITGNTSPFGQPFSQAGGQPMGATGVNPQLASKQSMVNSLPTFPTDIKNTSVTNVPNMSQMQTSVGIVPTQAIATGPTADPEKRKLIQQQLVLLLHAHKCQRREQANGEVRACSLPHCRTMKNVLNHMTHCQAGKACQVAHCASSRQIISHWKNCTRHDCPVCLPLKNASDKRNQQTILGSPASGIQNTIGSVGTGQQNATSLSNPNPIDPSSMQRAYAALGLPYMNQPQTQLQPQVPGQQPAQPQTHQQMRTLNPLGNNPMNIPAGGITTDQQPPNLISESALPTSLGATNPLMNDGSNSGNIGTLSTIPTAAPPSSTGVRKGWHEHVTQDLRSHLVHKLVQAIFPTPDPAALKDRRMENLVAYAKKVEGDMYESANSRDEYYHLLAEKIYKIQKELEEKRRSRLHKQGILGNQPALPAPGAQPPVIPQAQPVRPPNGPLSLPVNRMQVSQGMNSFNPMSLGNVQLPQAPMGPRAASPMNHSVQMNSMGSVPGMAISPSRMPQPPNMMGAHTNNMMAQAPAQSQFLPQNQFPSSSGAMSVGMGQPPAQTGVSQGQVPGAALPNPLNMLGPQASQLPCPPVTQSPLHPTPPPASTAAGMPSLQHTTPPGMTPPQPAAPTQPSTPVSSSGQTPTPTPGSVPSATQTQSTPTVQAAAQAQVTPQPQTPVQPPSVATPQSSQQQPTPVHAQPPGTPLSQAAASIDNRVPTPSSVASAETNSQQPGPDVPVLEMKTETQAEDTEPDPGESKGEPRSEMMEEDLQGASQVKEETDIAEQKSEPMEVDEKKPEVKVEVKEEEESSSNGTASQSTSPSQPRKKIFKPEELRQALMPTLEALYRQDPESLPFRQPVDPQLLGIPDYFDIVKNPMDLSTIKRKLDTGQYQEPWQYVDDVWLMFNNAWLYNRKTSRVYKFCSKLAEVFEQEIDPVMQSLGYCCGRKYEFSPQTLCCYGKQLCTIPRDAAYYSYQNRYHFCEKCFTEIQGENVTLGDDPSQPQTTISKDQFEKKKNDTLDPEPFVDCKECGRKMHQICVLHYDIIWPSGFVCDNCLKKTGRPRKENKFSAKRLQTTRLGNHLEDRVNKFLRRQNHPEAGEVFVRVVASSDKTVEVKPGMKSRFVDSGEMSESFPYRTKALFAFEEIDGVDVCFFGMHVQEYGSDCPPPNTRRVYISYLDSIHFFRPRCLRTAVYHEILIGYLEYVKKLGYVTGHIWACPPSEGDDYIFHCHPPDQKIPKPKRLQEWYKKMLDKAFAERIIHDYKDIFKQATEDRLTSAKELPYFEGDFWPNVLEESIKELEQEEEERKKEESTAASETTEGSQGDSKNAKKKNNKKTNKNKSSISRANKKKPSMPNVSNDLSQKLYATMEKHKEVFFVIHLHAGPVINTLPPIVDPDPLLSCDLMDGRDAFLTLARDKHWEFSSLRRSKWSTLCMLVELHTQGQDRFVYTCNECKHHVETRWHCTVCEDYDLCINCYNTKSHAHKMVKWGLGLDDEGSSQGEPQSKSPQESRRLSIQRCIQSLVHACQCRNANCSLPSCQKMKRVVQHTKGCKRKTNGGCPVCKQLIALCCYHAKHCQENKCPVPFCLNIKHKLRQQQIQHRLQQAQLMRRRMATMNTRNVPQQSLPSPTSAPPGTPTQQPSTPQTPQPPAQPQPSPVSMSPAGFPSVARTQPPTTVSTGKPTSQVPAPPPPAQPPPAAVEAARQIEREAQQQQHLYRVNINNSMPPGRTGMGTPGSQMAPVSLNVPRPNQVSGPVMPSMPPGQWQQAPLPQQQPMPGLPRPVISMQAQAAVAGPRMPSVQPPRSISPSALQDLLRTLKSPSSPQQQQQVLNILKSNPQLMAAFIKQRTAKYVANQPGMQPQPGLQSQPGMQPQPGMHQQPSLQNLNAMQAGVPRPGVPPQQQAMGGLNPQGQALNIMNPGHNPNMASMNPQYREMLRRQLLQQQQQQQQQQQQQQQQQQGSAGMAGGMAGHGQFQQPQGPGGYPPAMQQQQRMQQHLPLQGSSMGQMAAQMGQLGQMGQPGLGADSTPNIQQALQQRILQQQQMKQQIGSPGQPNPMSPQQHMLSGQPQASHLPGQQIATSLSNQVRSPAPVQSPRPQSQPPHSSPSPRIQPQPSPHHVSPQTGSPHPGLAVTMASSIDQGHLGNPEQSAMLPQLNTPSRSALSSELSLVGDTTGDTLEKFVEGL

For orientation: Kd means the free concentration of one partner at which half of the binding sites on the other are occupied at equilibrium, for simple one-to-one binding. Low values mean tighter binding, high ones weaker binding. As to `C=CCN(CC(=O)N(CC(N)=O)CC(C)C)C(=O)CN(Cc1ccco1)C(=O)CN(Cc1ccco1)C(=O)CN(Cc1ccco1)C(=O)CN(CC(C)C)C(=O)CNCc1cn(CCCCN(CC(N)=O)C(=O)CN(Cc2ccc3c(c2)OCO3)C(=O)CN(CCCCN)C(=O)CN(Cc2ccc3c(c2)OCO3)C(=O)CN(CC(C)C)C(=O)CN(CCCCN)C(=O)CNCc2ccc3c(c2)OCO3)nn1`, the Kd in assay [1] worked out at 8.3 µM.
`CC(C)CN(CC(=O)N(CC(=O)N(CCCCN)CC(=O)N(CC(=O)N(CCCCn1cc(CNCC(=O)N(CC(=O)N(CCO)CC(=O)N(CC(=O)N(CC(=O)N(CCCCN)CC(=O)N(CC(N)=O)Cc2ccco2)Cc2ccco2)Cc2ccc3c(c2)OCO3)Cc2ccco2)nn1)CC(N)=O)Cc1ccc2c(c1)OCO2)Cc1ccc2c(c1)OCO2)C(=O)CN(CCCCN)C(=O)CNCc1ccc2c(c1)OCO2` came in with an equilibrium dissociation constant (Kd) in assay [1] of 72.8 µM.
In the case of `CC(C)CN(CC(=O)N(CCCCN)CC(=O)N(CC(N)=O)Cc1ccc2c(c1)OCO2)C(=O)CN(Cc1ccc2c(c1)OCO2)C(=O)CN(CCCCN)C(=O)CNCc1ccc2c(c1)OCO2` (H-[Gly(N-piperonyl)][Nlys][Gly(N-piperonyl)][Nleu][Nlys][Gly(N-piperonyl)]-NH2), the outcome in assay [2] was inactive. Moreover, in assay [1], the Kd stood at 195 µM.
Turning to `C#CCNCC(=O)N(CC(=O)N(CC(=O)N(CC(=O)N(CC(=O)N(CC=C)CC(=O)N(CC(N)=O)CC(C)C)Cc1ccco1)Cc1ccco1)Cc1ccco1)CC(C)C` (H-[Gly(N-propargyl)][Nleu][NFurfurylGly][NFurfurylGly][NFurfurylGly][NAllylGly][Nleu]-NH2), the outcome in assay [2] was Active. The compound further displayed a Kd in assay [1] of 4.6 µM.
